From ChEMBL document CHEMBL4308841, “Synthesis, in vitro antiproliferative activity, and kinase inhibitory effects of pyrazole-containing diarylureas and diarylamides” (Eur J Med Chem, 2018)

Experiments:
SK-OV-3 [1] = experiment: Growth inhibition of human SKOV3 cells incubated for 48 hrs by sulforhodamine B assay; assay type: functional, cell-based; settings: SK-OV-3, 48 h
M14 = experiment: Growth inhibition of human M14 cells assessed as cell growth at 100 uM incubated for 48 hrs by sulforhodamine B assay relative to control; assay type: functional; settings: M14, 48 h, read-out: Activity
SN12C = experiment: Growth inhibition of human SN12C cells assessed as cell growth at 0.1 uM incubated for 48 hrs by sulforhodamine B assay relative to control; assay type: functional; settings: read-out: Activity
SK-OV-3 [2] = experiment: Growth inhibition of human SKOV3 cells assessed as cell growth at 0.1 uM incubated for 48 hrs by sulforhodamine B assay relative to control; assay type: functional; settings: SK-OV-3, 48 h, read-out: Activity
A549 [3] = experiment: Growth inhibition of human A549/ATCC cells incubated for 48 hrs by sulforhodamine B assay; assay type: functional, cell-based; settings: A549, 48 h
SNB-19 = experiment: Growth inhibition of human SNB19 cells assessed as cell growth at 0.01 uM incubated for 48 hrs by sulforhodamine B assay relative to control; assay type: functional; settings: SNB-19, 48 h, read-out: Activity
CAKI-1 = experiment: Growth inhibition of human Caki1 cells assessed as cell growth at 1 uM incubated for 48 hrs by sulforhodamine B assay relative to control; assay type: functional; settings: CAKI-1, 48 h, read-out: Activity
SK-MEL-2 [4] = experiment: Growth inhibition of human SK-MEL-2 cells assessed as cell growth at 0.01 uM incubated for 48 hrs by sulforhodamine B assay relative to control; assay type: functional; settings: SK-MEL-2, 48 h, read-out: Activity
UACC-62 [5] = experiment: Growth inhibition of human UACC62 cells assessed as cell growth at 100 uM incubated for 48 hrs by sulforhodamine B assay relative to control; assay type: functional; settings: UACC-62, 48 h, read-out: Activity
HL-60(TB) = experiment: Growth inhibition of human HL-60(TB) cells incubated for 48 hrs by sulforhodamine B assay; assay type: functional, cell-based; settings: HL-60, 48 h
HCT-116 [6] = experiment: Growth inhibition of human HCT116 cells assessed as cell growth at 0.01 uM incubated for 48 hrs by sulforhodamine B assay relative to control; assay type: functional; settings: HCT-116, 48 h, read-out: Activity
DU-145 = experiment: Growth inhibition of human DU145 cells assessed as cell growth at 0.1 uM incubated for 48 hrs by sulforhodamine B assay relative to control; assay type: functional; settings: DU-145, 48 h, read-out: Activity
SNB-75 = experiment: Growth inhibition of human SNB75 cells assessed as cell growth at 0.01 uM incubated for 48 hrs by sulforhodamine B assay relative to control; assay type: functional; settings: SNB-75, 48 h, read-out: Activity
HCC 2998 [7] = experiment: Growth inhibition of human HCC2998 cells assessed as cell growth at 0.1 uM incubated for 48 hrs by sulforhodamine B assay relative to control; assay type: functional; settings: HCC 2998, 48 h, read-out: Activity
A549 [8] = experiment: Growth inhibition of human A549/ATCC cells assessed as cell growth at 1 uM incubated for 48 hrs by sulforhodamine B assay relative to control; assay type: functional; settings: A549, 48 h, read-out: Activity
SW-620 = experiment: Growth inhibition of human SW620 cells assessed as cell growth at 0.01 uM incubated for 48 hrs by sulforhodamine B assay relative to control; assay type: functional; settings: SW-620, 48 h, read-out: Activity
HCT-15 = experiment: Growth inhibition of human HCT15 cells assessed as cell growth at 1 uM incubated for 48 hrs by sulforhodamine B assay relative to control; assay type: functional; settings: HCT-15, 48 h, read-out: Activity
A498 [9] = experiment: Growth inhibition of human A498 cells assessed as cell growth at 1 uM incubated for 48 hrs by sulforhodamine B assay relative to control; assay type: functional; settings: A498, 48 h, read-out: Activity
MDA-MB-231 = experiment: Growth inhibition of human MDA-MB-231 cells assessed as cell growth at 100 uM incubated for 48 hrs by sulforhodamine B assay relative to control; assay type: functional; settings: MDA-MB-231, 48 h, read-out: Activity
BT-549 = experiment: Growth inhibition of human BT549 cells assessed as cell growth at 0.01 uM incubated for 48 hrs by sulforhodamine B assay relative to control; assay type: functional; settings: BT-549, 48 h, read-out: Activity
HCT-116 [10] = experiment: Growth inhibition of human HCT116 cells assessed as cell growth at 1 uM incubated for 48 hrs by sulforhodamine B assay relative to control; assay type: functional; settings: HCT-116, 48 h, read-out: Activity
HCC 2998 [11] = experiment: Growth inhibition of human HCC2998 cells assessed as cell growth at 1 uM incubated for 48 hrs by sulforhodamine B assay relative to control; assay type: functional; settings: HCC 2998, 48 h, read-out: Activity
K562 = experiment: Growth inhibition of human K562 cells assessed as cell growth at 1 uM incubated for 48 hrs by sulforhodamine B assay relative to control; assay type: functional; settings: K562, 48 h, read-out: Activity
NCI-H522 = experiment: Growth inhibition of human NCI-H522 cells assessed as cell growth at 0.1 uM incubated for 48 hrs by sulforhodamine B assay relative to control; assay type: functional; settings: NCI-H522, 48 h, read-out: Activity
NCI-H322M = experiment: Growth inhibition of human NCI-H322M cells assessed as cell growth at 1 uM incubated for 48 hrs by sulforhodamine B assay relative to control; assay type: functional; settings: read-out: Activity
A498 [12] = experiment: Growth inhibition of human A498 cells assessed as cell growth at 0.1 uM incubated for 48 hrs by sulforhodamine B assay relative to control; assay type: functional; settings: A498, 48 h, read-out: Activity
OVCAR-5 = experiment: Growth inhibition of human OVCAR5 cells assessed as cell growth at 0.1 uM incubated for 48 hrs by sulforhodamine B assay relative to control; assay type: functional; settings: OVCAR-5, 48 h, read-out: Activity
OVCAR-8 = experiment: Growth inhibition of human OVCAR8 cells assessed as cell growth at 0.1 uM incubated for 48 hrs by sulforhodamine B assay relative to control; assay type: functional; settings: OVCAR-8, 48 h, read-out: Activity
UACC-62 [13] = experiment: Growth inhibition of human UACC62 cells incubated for 48 hrs by sulforhodamine B assay; assay type: functional, cell-based; settings: UACC-62, 48 h
IGROV-1 = experiment: Growth inhibition of human IGROV1 cells assessed as cell growth at 0.01 uM incubated for 48 hrs by sulforhodamine B assay relative to control; assay type: functional; settings: IGROV-1, 48 h, read-out: Activity
SK-MEL-2 [14] = experiment: Growth inhibition of human SK-MEL-2 cells assessed as cell growth at 100 uM incubated for 48 hrs by sulforhodamine B assay relative to control; assay type: functional; settings: SK-MEL-2, 48 h, read-out: Activity
[15] = read-out: LC50 (the source's name)
[16] = read-out: pLC50 (the source's name) (converted)

O=C(Nc1cccc(-n2cc(-c3ccncc3)c(-c3cc(O)cc(Cl)c3)n2)c1)Nc1ccc(Cl)c(C(F)(F)F)c1
GI50 (SK-OV-3 [1]; read-out: GI50): 4.11 µM
CC50 (SK-OV-3 [1]; [15]): > 100 µM
TGI (SK-OV-3 [1]; read-out: TGI): 30.7 µM
GI50 (SK-OV-3 [1]; read-out: pGI50 (converted)): 4.07 µM
CC50 (SK-OV-3 [1]; [16]): > 100 µM
TGI (SK-OV-3 [1]; read-out: pTGI (converted)): 30.9 µM
growth at 100 µM (M14): -57%
growth at 0.1 µM (SN12C): 100%
growth at 0.1 µM (SK-OV-3 [2]): 104%
IC50 (A549 [3]): 2.33 µM
GI50 (A549 [3]; read-out: GI50): 2.33 µM
CC50 (A549 [3]; [15]): > 100 µM
TGI (A549 [3]; read-out: TGI): 92 µM
GI50 (A549 [3]; read-out: pGI50 (converted)): 2.34 µM
CC50 (A549 [3]; [16]): > 100 µM
TGI (A549 [3]; read-out: pTGI (converted)): 9.12 µM
growth at 0.01 µM (SNB-19): 95%
growth at 1 µM (CAKI-1): 98%
growth at 0.01 µM (SK-MEL-2 [4]): 99%
growth at 100 µM (UACC-62 [5]): -85%
GI50 (HL-60(TB); read-out: GI50): 2.56 µM
LC50 (HL-60(TB); read-out: LC50): > 100 µM
TGI (HL-60(TB); read-out: TGI): 66.2 µM
GI50 (HL-60(TB); read-out: pGI50 (converted)): 2.88 µM
LC50 (HL-60(TB); read-out: pLC50 (converted)): > 100 µM
TGI (HL-60(TB); read-out: pTGI (converted)): 6.61 µM
growth at 0.01 µM (HCT-116 [6]): 104%
growth at 0.1 µM (DU-145): 99%
growth at 0.01 µM (SNB-75): 53%
growth at 0.1 µM (HCC 2998 [7]): 97%
growth at 1 µM (A549 [8]): 81%
growth at 0.01 µM (SW-620): 97%
growth at 1 µM (HCT-15): 90%
growth at 1 µM (A498 [9]): 92%
growth at 100 µM (MDA-MB-231): -38%
growth at 0.01 µM (BT-549): 102%
growth at 1 µM (HCT-116 [10]): 91%
growth at 1 µM (HCC 2998 [11]): 106%
growth at 1 µM (K562): 55%
growth at 0.1 µM (NCI-H522): 83%
growth at 1 µM (NCI-H322M): 93%
growth at 0.1 µM (A498 [12]): 50%
growth at 0.1 µM (OVCAR-5): 91%
growth at 0.1 µM (OVCAR-8): 100%
IC50 (UACC-62 [13]): 2.08 µM
GI50 (UACC-62 [13]; read-out: GI50): 2 µM
CC50 (UACC-62 [13]; [15]): 91.9 µM
TGI (UACC-62 [13]; read-out: TGI): 43.8 µM
GI50 (UACC-62 [13]; read-out: pGI50 (converted)): 2.09 µM
CC50 (UACC-62 [13]; [16]): 9.12 µM
TGI (UACC-62 [13]; read-out: pTGI (converted)): 4.37 µM
growth at 0.01 µM (IGROV-1): 94%
growth at 100 µM (SK-MEL-2 [14]): -88%

O=C(Nc1cccc(-n2cc(-c3ccncc3)c(-c3cc(O)cc(Cl)c3)n2)c1)c1cc(C(F)(F)F)cc(C(F)(F)F)c1
GI50 (SK-OV-3 [1]; read-out: GI50): 1.08 µM
CC50 (SK-OV-3 [1]; [15]): > 100 µM
TGI (SK-OV-3 [1]; read-out: TGI): > 100 µM
GI50 (SK-OV-3 [1]; read-out: pGI50 (converted)): 10.7 µM
CC50 (SK-OV-3 [1]; [16]): > 100 µM
TGI (SK-OV-3 [1]; read-out: pTGI (converted)): > 100 µM
growth at 100 µM (M14): 5%
growth at 0.1 µM (SN12C): 98%
growth at 0.1 µM (SK-OV-3 [2]): 98%
IC50 (A549 [3]): 2.62 µM
GI50 (A549 [3]; read-out: GI50): 2.52 µM
CC50 (A549 [3]; [15]): > 100 µM
TGI (A549 [3]; read-out: TGI): > 100 µM
GI50 (A549 [3]; read-out: pGI50 (converted)): 2.63 µM
CC50 (A549 [3]; [16]): > 100 µM
TGI (A549 [3]; read-out: pTGI (converted)): > 100 µM
growth at 0.01 µM (SNB-19): 97%
growth at 1 µM (CAKI-1): 90%
growth at 0.01 µM (SK-MEL-2 [4]): 95%
growth at 100 µM (UACC-62 [5]): -35%
growth at 0.01 µM (HCT-116 [6]): 102%
growth at 0.1 µM (DU-145): 99%
growth at 0.01 µM (SNB-75): 58%
growth at 0.1 µM (HCC 2998 [7]): 95%
growth at 1 µM (A549 [8]): 74%
growth at 0.01 µM (SW-620): 99%
growth at 1 µM (HCT-15): 79%
growth at 1 µM (A498 [9]): 78%
growth at 100 µM (MDA-MB-231): -84%
growth at 0.01 µM (BT-549): 95%
growth at 1 µM (HCT-116 [10]): 59%
growth at 1 µM (HCC 2998 [11]): 96%
growth at 1 µM (K562): 85%
growth at 0.1 µM (NCI-H522): 30%
growth at 1 µM (NCI-H322M): 90%
growth at 0.1 µM (A498 [12]): 87%
growth at 0.1 µM (OVCAR-5): 54%
growth at 0.1 µM (OVCAR-8): 100%
IC50 (UACC-62 [13]): 3.79 µM
GI50 (UACC-62 [13]; read-out: GI50): 3.79 µM
CC50 (UACC-62 [13]; [15]): > 100 µM
TGI (UACC-62 [13]; read-out: TGI): 22.4 µM
GI50 (UACC-62 [13]; read-out: pGI50 (converted)): 3.8 µM
CC50 (UACC-62 [13]; [16]): > 100 µM
TGI (UACC-62 [13]; read-out: pTGI (converted)): 28.2 µM
growth at 0.01 µM (IGROV-1): 100%
growth at 100 µM (SK-MEL-2 [14]): -43%
